According to the NIST ThermoML archive (doi:10.1016/j.jct.2010.08.019):

Assay: refractive index (Na D-line) (dimensionless); xn = mol fraction of the nth substance listed
Conditions: 101 kPa, Liquid, Standard Abbe refractometry

CC(C)CC(C)(C)C [2,2,4-trimethylpentane] + CC(C)O
Conditions	refractive index
293.15 K, x2 = 0.2501	1.41104
293.15 K, x2 = 0.3003	1.40906
293.15 K, x2 = 0.3502	1.40701
293.15 K, x2 = 0.4004	1.40497
293.15 K, x2 = 0.4502	1.4029
293.15 K, x2 = 0.5001	1.40079
293.15 K, x2 = 0.55	1.39865
293.15 K, x2 = 0.5998	1.39647
293.15 K, x2 = 0.6502	1.39422
293.15 K, x2 = 0.7002	1.39194
293.15 K, x2 = 0.7499	1.38965
293.15 K, x2 = 0.7999	1.38727
293.15 K, x2 = 0.85	1.38486
293.15 K, x2 = 0.8999	1.38241
293.15 K, x2 = 0.95	1.37993
303.15 K, x2 = 0	1.41599
303.15 K, x2 = 0.05	1.41398
303.15 K, x2 = 0.1	1.41198
303.15 K, x2 = 0.1499	1.41
303.15 K, x2 = 0.2004	1.408
303.15 K, x2 = 0.2497	1.40602
303.15 K, x2 = 0.3	1.40405
303.15 K, x2 = 0.3499	1.40202
303.15 K, x2 = 0.4008	1.40001
303.15 K, x2 = 0.4503	1.39797
303.15 K, x2 = 0.5	1.3959
303.15 K, x2 = 0.5498	1.3938
303.15 K, x2 = 0.6001	1.39166
303.15 K, x2 = 0.65	1.38947
303.15 K, x2 = 0.7001	1.38724
303.15 K, x2 = 0.7495	1.38498
303.15 K, x2 = 0.7989	1.38267
303.15 K, x2 = 0.8499	1.3803
303.15 K, x2 = 0.8997	1.37788
303.15 K, x2 = 0.95	1.37545
313.15 K, x2 = 0	1.41092
313.15 K, x2 = 0.0499	1.40889
313.15 K, x2 = 0.1001	1.40693
313.15 K, x2 = 0.1503	1.40494
313.15 K, x2 = 0.2001	1.40299
313.15 K, x2 = 0.2499	1.40102
313.15 K, x2 = 0.3003	1.39906
313.15 K, x2 = 0.3497	1.39707
313.15 K, x2 = 0.4	1.39507
313.15 K, x2 = 0.4502	1.39301
313.15 K, x2 = 0.5005	1.39098
313.15 K, x2 = 0.5499	1.38891
313.15 K, x2 = 0.6	1.38681
313.15 K, x2 = 0.6498	1.38469
313.15 K, x2 = 0.6999	1.38251
313.15 K, x2 = 0.75	1.38031
313.15 K, x2 = 0.7998	1.37808
313.15 K, x2 = 0.8498	1.37578
313.15 K, x2 = 0.8999	1.37345
313.15 K, x2 = 0.9499	1.37107
323.15 K, x2 = 0	1.40554
323.15 K, x2 = 0.0501	1.40351
323.15 K, x2 = 0.1	1.40154
323.15 K, x2 = 0.15	1.39952
323.15 K, x2 = 0.1998	1.39757
323.15 K, x2 = 0.25	1.39566
323.15 K, x2 = 0.3	1.39368
323.15 K, x2 = 0.35	1.39173
323.15 K, x2 = 0.4	1.38974
323.15 K, x2 = 0.4499	1.38775
323.15 K, x2 = 0.5	1.38572
323.15 K, x2 = 0.5501	1.38366
323.15 K, x2 = 0.6	1.38161
323.15 K, x2 = 0.65	1.37953
323.15 K, x2 = 0.7	1.37741
323.15 K, x2 = 0.7499	1.37522
323.15 K, x2 = 0.7999	1.37303
323.15 K, x2 = 0.85	1.3708
323.15 K, x2 = 0.9	1.36851
323.15 K, x2 = 0.95	1.36617

C1CCOCC1 [tetrahydropyran] + CC(C)CC(C)(C)C
Conditions	refractive index
293.15 K, x1 = 0.0502	1.39259
293.15 K, x1 = 0.1	1.39359
293.15 K, x1 = 0.1499	1.39461
293.15 K, x1 = 0.2	1.39567
293.15 K, x1 = 0.25	1.39677
293.15 K, x1 = 0.3	1.39792
293.15 K, x1 = 0.35	1.39911
293.15 K, x1 = 0.4	1.40036
293.15 K, x1 = 0.4498	1.40167
293.15 K, x1 = 0.5001	1.40303
293.15 K, x1 = 0.5501	1.40446
293.15 K, x1 = 0.5999	1.40595
293.15 K, x1 = 0.6501	1.40753
293.15 K, x1 = 0.6999	1.40917
293.15 K, x1 = 0.75	1.41092
293.15 K, x1 = 0.8	1.41274
293.15 K, x1 = 0.8501	1.41468
293.15 K, x1 = 0.9	1.4167
293.15 K, x1 = 0.95	1.41885
293.15 K, x1 = 1	1.42109
303.15 K, x1 = 0.0502	1.38756
303.15 K, x1 = 0.1	1.38853
303.15 K, x1 = 0.1499	1.38953
303.15 K, x1 = 0.2	1.39057
303.15 K, x1 = 0.25	1.39166
303.15 K, x1 = 0.2999	1.39279
303.15 K, x1 = 0.3498	1.39399
303.15 K, x1 = 0.3998	1.39524
303.15 K, x1 = 0.4498	1.39654
303.15 K, x1 = 0.5001	1.3979
303.15 K, x1 = 0.5501	1.39932
303.15 K, x1 = 0.5999	1.40081
303.15 K, x1 = 0.6501	1.40239
303.15 K, x1 = 0.6999	1.40403
303.15 K, x1 = 0.75	1.40577
303.15 K, x1 = 0.8	1.4076
303.15 K, x1 = 0.8501	1.40954
303.15 K, x1 = 0.9	1.41158
303.15 K, x1 = 0.95	1.41373
303.15 K, x1 = 1	1.41599
313.15 K, x1 = 0.0501	1.38237
313.15 K, x1 = 0.1002	1.38334
313.15 K, x1 = 0.1501	1.38433
313.15 K, x1 = 0.1999	1.38537
313.15 K, x1 = 0.2501	1.38645
313.15 K, x1 = 0.3	1.38759
313.15 K, x1 = 0.3499	1.38877
313.15 K, x1 = 0.4002	1.39001
313.15 K, x1 = 0.4502	1.39131
313.15 K, x1 = 0.4999	1.39266
313.15 K, x1 = 0.5499	1.39409
313.15 K, x1 = 0.6	1.39559
313.15 K, x1 = 0.65	1.39716
313.15 K, x1 = 0.6998	1.39881
313.15 K, x1 = 0.75	1.40055
313.15 K, x1 = 0.8001	1.40239
313.15 K, x1 = 0.8501	1.40432
313.15 K, x1 = 0.9001	1.40638
313.15 K, x1 = 0.9498	1.40857
313.15 K, x1 = 1	1.41092
323.15 K, x1 = 0.0501	1.37719
323.15 K, x1 = 0.1002	1.37814
323.15 K, x1 = 0.1501	1.37913
323.15 K, x1 = 0.1999	1.38015
323.15 K, x1 = 0.2501	1.38122
323.15 K, x1 = 0.3	1.38233
323.15 K, x1 = 0.3499	1.38349
323.15 K, x1 = 0.4002	1.38471
323.15 K, x1 = 0.45	1.38599
323.15 K, x1 = 0.5002	1.38733
323.15 K, x1 = 0.55	1.38874
323.15 K, x1 = 0.5997	1.39022
323.15 K, x1 = 0.65	1.39179
323.15 K, x1 = 0.6998	1.39343
323.15 K, x1 = 0.75	1.39518
323.15 K, x1 = 0.8001	1.39701
323.15 K, x1 = 0.8501	1.39895
323.15 K, x1 = 0.9002	1.40101
323.15 K, x1 = 0.95	1.40319
323.15 K, x1 = 1	1.40554

C1CCOCC1 [tetrahydropyran] + CC(C)O
Conditions	refractive index
293.15 K, x2 = 0	1.39161
293.15 K, x2 = 0.0501	1.39085
293.15 K, x2 = 0.0999	1.3902
293.15 K, x2 = 0.1499	1.38954
293.15 K, x2 = 0.2003	1.38897
293.15 K, x2 = 0.2506	1.38839
293.15 K, x2 = 0.2999	1.38777
293.15 K, x2 = 0.35	1.38719
293.15 K, x2 = 0.3999	1.3866
293.15 K, x2 = 0.4499	1.38599
293.15 K, x2 = 0.5001	1.38539
293.15 K, x2 = 0.5502	1.38478
293.15 K, x2 = 0.6001	1.38415
293.15 K, x2 = 0.6499	1.38347
293.15 K, x2 = 0.7001	1.3827
293.15 K, x2 = 0.7499	1.38194
293.15 K, x2 = 0.8	1.38113
293.15 K, x2 = 0.8501	1.38021
293.15 K, x2 = 0.9001	1.37932
293.15 K, x2 = 0.9499	1.37832
303.15 K, x2 = 0	1.3866
303.15 K, x2 = 0.0502	1.38571
303.15 K, x2 = 0.1001	1.38505
303.15 K, x2 = 0.1501	1.38441
303.15 K, x2 = 0.1998	1.38377
303.15 K, x2 = 0.2499	1.3832
303.15 K, x2 = 0.3	1.38259
303.15 K, x2 = 0.3499	1.38201
303.15 K, x2 = 0.4001	1.38144
303.15 K, x2 = 0.4501	1.38087
303.15 K, x2 = 0.5001	1.38026
303.15 K, x2 = 0.55	1.37965
303.15 K, x2 = 0.6	1.37903
303.15 K, x2 = 0.65	1.37841
303.15 K, x2 = 0.6999	1.37775
303.15 K, x2 = 0.7499	1.37704
303.15 K, x2 = 0.8001	1.37633
303.15 K, x2 = 0.85	1.37553
303.15 K, x2 = 0.8998	1.37469
303.15 K, x2 = 0.9499	1.3738
313.15 K, x2 = 0	1.38143
313.15 K, x2 = 0.05	1.38065
313.15 K, x2 = 0.1	1.37995
313.15 K, x2 = 0.1501	1.37929
313.15 K, x2 = 0.2	1.37868
313.15 K, x2 = 0.2499	1.37807
313.15 K, x2 = 0.2997	1.37748
313.15 K, x2 = 0.3499	1.37692
313.15 K, x2 = 0.4	1.37632
313.15 K, x2 = 0.4504	1.37573
313.15 K, x2 = 0.5001	1.37513
313.15 K, x2 = 0.55	1.37457
313.15 K, x2 = 0.5999	1.37399
313.15 K, x2 = 0.65	1.37339
313.15 K, x2 = 0.7001	1.3728
313.15 K, x2 = 0.7502	1.37216
313.15 K, x2 = 0.7999	1.37151
313.15 K, x2 = 0.85	1.37081
313.15 K, x2 = 0.8998	1.37005
313.15 K, x2 = 0.9498	1.36931
323.15 K, x2 = 0	1.37627
323.15 K, x2 = 0.05	1.3752
323.15 K, x2 = 0.1	1.37442
323.15 K, x2 = 0.1501	1.37378
323.15 K, x2 = 0.2	1.37312
323.15 K, x2 = 0.2499	1.37252
323.15 K, x2 = 0.2997	1.37192
323.15 K, x2 = 0.3499	1.37127
323.15 K, x2 = 0.4	1.37072
323.15 K, x2 = 0.4504	1.37012
323.15 K, x2 = 0.5001	1.3695
323.15 K, x2 = 0.5501	1.36901
323.15 K, x2 = 0.6	1.36843
323.15 K, x2 = 0.65	1.36789
323.15 K, x2 = 0.6999	1.36729
323.15 K, x2 = 0.7502	1.36664
323.15 K, x2 = 0.8002	1.36608
323.15 K, x2 = 0.8501	1.36542
323.15 K, x2 = 0.8998	1.36485
323.15 K, x2 = 0.9501	1.3642
